Measured values: ChEMBL document CHEMBL5625278 (Bioorg Med Chem Lett, 2024)

Assay: Binding affinity to LAR C1536S mutant (unknown origin) assessed as inhibition constant by Michaelis-Menten analysis
Set-up: species or system Homo sapiens

Structure (SMILES): CC1(C)Cc2c(O)c(C=O)c3c(c2C1)C(=O)OC(O)C3 (stereo unspecified) [ILLUDALIC ACID]
- Ki: 7 µM
